Laboratory results as given in US10227327B2, “Inhibitors of metallo-beta-lactamase (MBL) comprising a zinc chelating moiety” (Universitetet I Oslo, priority 2013, dated 2019).

Legend:
[1] = target: GIM-1 in E. coli SNO3 containing pET26b-blaGIM-1 (Pseudomonas aeruginosa, UniProt Q704V1); test: MBL inhibition in whole E. coli cells expressing MBL (nitrocefin hydrolysis); assay type: cell-based; conditions: whole cell, test substance 250 μM
[2] = target: VIM-2 in E. coli SNO3 containing pET26b-blaVIM-2 (Escherichia coli, UniProt Q5U7L7); test: as above; assay type: cell-based; conditions: whole cell, test substance 250 μM
[3] = target: VIM-2 (Escherichia coli, UniProt Q5U7L7); test: IC50 determination against purified MBL, nitrocefin reporter substrate; assay type: biochemical; conditions: purified enzyme 1 nM, nitrocefin 50 μM, 25° C.
Protocol: (§1) General Protocol for Determination of IC50-Values
(§2) Buffers: A: 50 mM HEPES pH 7.2, 100 μM ZnCl2
(§3) • B: 50 mM HEPES pH 7.2, 100 μM ZnCl2 and 400 μg/ml Bovine Serum Albumin (BSA) Equipment: SpectraMax 96 well reader • 96 well plates • Cuvettes • General plastics: dilution tubes, eppendorfs etc. Method: Inhibitors: a. Dissolved in 100% DMSO at a concentration of 10 mM • b. Dissolve the inhibitor in buffer A to a concentration of 25% DMSO. No more than 2.5% DMSO is tolerable in the assay. 100% DMSO (10 mM); […]; […] • c. Make a 2-fold dilution series of the inhibitor. At least 8 dilutions should be made. See example in table 1 Reporter Substrate (Nitrocefin): • a. Dilute a small amount of nitrocefin in 1 ml of DMSO • b. Add 990 μl buffer A+10 μl of nitrocefin to a cuvette. • c. Measure initial OD at absorbance specific for the substrate • d. Add purified enzyme to the cuvette and let the hydrolysis run to completion (the more concentrated the enzyme the faster the hydrolysis will run) • e. Measure the end OD • f. Calculate the concentration of substrate: [(End OD−Initial OD)×dilution factor]/Δε (Δε Nitrocefin=17400) • g. Dilute nitrocefin to 100 μM in buffer A Enzyme: Dilute purified enzyme in buffer B to a concentration of 10 nM. Assay: a. Set the settings and temperature on the Spectramax/software: • I. Kinetics • II. λ: 482 • III. Time: 20 min • IV. Interval: 2-5 sec. • V. Mix before 1st read: 5 sec. • VI. Temp: 25° C. • b. Add 30 μl buffer A, 10 μl purified enzyme (final concn. 1 nM), and 10 μl inhibitor to assay wells (duplicates for each inhibitor concentration). Also include a negative control. Wells with no added inhibitor, just 40 μl buffer A. See illustration in table 1. • c. Incubate the plate in the reader for 5 min. • d. Add 50 μl nitrocefin (final concn. 50 μM) to assay wells. This should be done quickly—preferably with an electronic multi-channel pipette. • e. Start the readings immediately. Determine: the initial velocity (V0) for each inhibitor concentration and calculate IC50.

[4] = target: GIM-1 (Pseudomonas aeruginosa, UniProt Q704V1); test: as above; assay type: biochemical; conditions: purified enzyme 1 nM, nitrocefin 50 μM, 25° C.
Protocol: as §1, §2, §3

[5] = test system: MBL-negative clinical strains; test: Synergy with meropenem in MBL-negative clinical strains; assay type: cell-based
Protocol: (§4) General Protocol for Microbroth Dilution Method for Evaluating Antibacterial Activity of Compounds or Synergistic Effect of Compound-Antibiotic Combination
(§5) • Plate bacterial strain(s) on appropriate media: • Gram-negative bacteria with ESBLs or carbapenemases: green agar plates with 100 mg/L ampicillin • Gram-negative bacteria without β-lactamases: green agar plates • Gram-positive bacteria (Staphylococci and Enterococci): blood agar plates • Incubate o.n. at 37° C. Day 2: Prepare the Bacterial Inoculum: • Prepare a 0.5 McFarland suspension of bacteria in 0.85% NaCl. (Should be used within 15 min of preparation). • Dilute the 0.5 McFarland suspension 1:100 into MH broth. Check the inoculum by diluting the prepared bacterial suspension 1:100 (10 μl bacterial suspension+990 μl 0.85% NaCl). Plate 10 μl of the dilution on MH agar plates (×2). Incubate o.n. at 37° C., count the colonies and calculate the final CFU/ml inoculum in the plate by multiplying the average number of colonies with 10000 and divide by 2. The final inoculum should be between 3-7×10^5 CFU/ml. • Add 50 μl of the prepared bacterial suspension to each well in the microtiter plate except negative growth control. Preparation of Compounds/Antibiotics • Calculate the desired concentration-range and volume of the compounds/antibiotics in the assay. […] Dilute the stock solution in MH broth. […]

[6] = target: NDM-1 (Klebsiella pneumoniae, UniProt C7C422); test: IC50 determination against purified MBL, nitrocefin reporter substrate; assay type: biochemical; conditions: purified enzyme 1 nM, nitrocefin 50 μM, 25° C.
Protocol: as §1, §2, §3

[7] = test system: K. pneumoniae A3-81 (VIM-1); test: Microbroth dilution, meropenem MIC with/without compound; assay type: cell-based; conditions: absence of inhibitor; A3-81 K. pneumoniae VIM-1
Protocol: as §4
(§6) • Plate bacterial strain(s) on appropriate media: • Gram-negative bacteria with ESBLs or carbapenemases: green agar plates with 100 mg/L ampicillin • Gram-negative bacteria without β-lactamases: green agar plates • Gram-positive bacteria (Staphylococci and Enterococci): blood agar plates • Incubate o.n. at 37° C. Day 2: Prepare the Bacterial Inoculum: • Prepare a 0.5 McFarland suspension of bacteria in 0.85% NaCl. (Should be used within 15 min of preparation). • Dilute the 0.5 McFarland suspension 1:100 into MH broth. Check the inoculum by diluting the prepared bacterial suspension 1:100 (10 μl bacterial suspension+990 μl 0.85% NaCl). Plate 10 μl of the dilution on MH agar plates (×2). Incubate o.n. at 37° C., count the colonies and calculate the final CFU/ml inoculum in the plate by multiplying the average number of colonies with 10000 and divide by 2. The final inoculum should be between 3-7×10^5 CFU/ml. • Add 50 μl of the prepared bacterial suspension to each well in the microtiter plate except negative growth control. Preparation of Compounds/Antibiotics • Calculate the desired concentration-range and volume of the compounds/antibiotics in the assay. […] Dilute the stock solution in MH broth. Make subsequent 2-fold dilutions in MH broth of the desired concentrations if a concentration range is to be tested (remember the extra dilution factor in the assay plate). Always include extra volume for pipetting. Take into consideration stock solutions that are made in buffers that have an effect on bacterial growth (e.g. DMSO). Assay: • Determining the MIC of compounds/antibiotics alone: • Add 25 μl of each concentration of compound/antibiotic to row 2-11 (highest concentration in row 2) • Add 25 μl MH broth to row 2-11 • Add 50 μl MH broth to row 12 (positive control) • Add 100 μl MH broth to row 1 • Add 50 μl bacterial suspension to row 2-12. • Determining the MIC of antibiotics+compounds: • Add 25 μl of each concentration of antibiotic to row 2-11 (highest concentration in row 2) • Add 25 μl of compound to row 2-11 • Add 50 μl MH broth to row 12 (positive control) • Add 100 μl MH broth to row 1 • Add 50 μl bacterial suspension to row 2-12. • Incubate the plate for 20 hrs at 37° C. and determine the MIC in the presence and absence of inhibitor.

[8] = test system: E. coli 50639799 (VIM-1); test: as above; assay type: cell-based; conditions: absence of inhibitor; 50639799 E. coli VIM-1
Protocol: as §4, §6

[9] = test system: K. pneumoniae 50732159 (MBL negative); test: as above; assay type: cell-based; conditions: 50732159 K. pneumoniae MBL negative; for Meropenem MIC (mg/L) in presence of compound: compound at 125 μM
Protocol: as §4, §6

[10] = test system: E. coli K71-77 (NDM-1); test: as above; assay type: cell-based; conditions: absence of inhibitor; K71-77 E. coli NDM-1
Protocol: as §4, §6

[11] = test system: K. pneumoniae K66-45 (NDM-1); test: as above; assay type: cell-based; conditions: absence of inhibitor; K66-45 K. pneumoniae NDM-1
Protocol: as §4, §6

[12] = test system: E. coli 50739467 (MBL negative); test: as above; assay type: cell-based; conditions: 50739467 E. coli MBL negative; for Meropenem MIC (mg/L) in presence of compound: compound at 125 μM
Protocol: as §4, §6

[13] = test system: MBL-producing P. aeruginosa, K. pneumoniae and E. coli; test: Synergy with meropenem in MBL-producing clinical strains; assay type: cell-based; conditions: compound 125 μM
Protocol: as §4, §5

[14] = test system: P. aeruginosa 50808021 (MBL negative); test: Microbroth dilution, meropenem MIC with/without compound; assay type: cell-based; conditions: compound at 125 μM; 50808021 P. aeruginosa MBL negative
Protocol: as §4, §6

Chain of GIM-1 (Q704V1 19-250 limits assumed): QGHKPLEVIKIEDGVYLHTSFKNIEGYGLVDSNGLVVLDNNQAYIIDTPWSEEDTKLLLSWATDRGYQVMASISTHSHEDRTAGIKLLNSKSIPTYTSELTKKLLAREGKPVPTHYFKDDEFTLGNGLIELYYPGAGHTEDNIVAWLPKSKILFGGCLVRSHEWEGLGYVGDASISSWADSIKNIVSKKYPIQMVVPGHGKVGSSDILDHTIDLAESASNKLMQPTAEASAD
Chain of GIM-1 in E. coli SNO3 containing pET26b-blaGIM-1 (Q704V1 19-250 limits assumed): as above
Chain of NDM-1 (C7C422 whole entry, looked up, species assumed): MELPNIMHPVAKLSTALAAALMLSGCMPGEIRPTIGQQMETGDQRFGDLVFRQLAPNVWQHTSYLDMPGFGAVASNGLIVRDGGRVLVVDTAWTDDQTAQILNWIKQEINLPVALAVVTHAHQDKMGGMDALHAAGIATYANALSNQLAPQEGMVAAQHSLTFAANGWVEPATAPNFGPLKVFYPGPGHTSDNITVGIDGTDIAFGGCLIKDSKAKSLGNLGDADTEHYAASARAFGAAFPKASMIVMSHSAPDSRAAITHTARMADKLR

COc1cc(-n2cc(CN(Cc3ccccn3)Cc3ccccn3)nn2)cc(OC)c1OC [Example 5, 1-(pyridin-2-yl)-N-(pyridin-2-ylmethyl)-N-((1-(3,4,5-trimethoxyphenyl)-1H-1,2,3-triazol-4-yl)methyl)methanamine]
inhibition at 250 µM [1]: 14.4%
inhibition at 250 µM [2]: 73.8%
IC50 [3]: 11.5 µM
IC50 [4]: 0.79 µM

FC(F)(F)c1ccc(-n2cc(CN(Cc3ccccn3)Cc3ccccn3)nn2)cc1 [Example 12, 1-(pyridin-2-yl)-N-(pyridin-2-ylmethyl)-N-((1-(4-(trifluoromethyl)phenyl)-1H-1,2,3-triazol-4-yl)methyl)methanamine]
synergistic effect with meropenem [5]: No synergistic effect
inhibition at 250 µM [1]: 15.7%
inhibition at 250 µM [2]: 64.2%
IC50 [3]: 12.9 µM
IC50 [4]: 1.1 µM

O=[N+]([O-])c1ccc(Cn2cc(CN(Cc3ccccn3)Cc3ccccn3)nn2)cc1 [Example 6, 1-(1-(4-nitrobenzyl)-1H-1,2,3-triazol-4-yl)-N,N-bis(pyridin-2-ylmethyl)methanamine]
inhibition at 250 µM [1]: 20.6%
inhibition at 250 µM [2]: 82.1%
IC50 [3]: 40.9 µM
IC50 [4]: 0.71 µM

COc1ccc(Cn2cc(CN(Cc3ccccn3)Cc3ccccn3)nn2)cc1[N+](=O)[O-] [Example 8, 1-(1-(4-methoxy-3-nitrobenzyl)-1H-1,2,3-triazol-4-yl)-N,N-bis(pyridin-2-ylmethyl)methanamine]
inhibition at 250 µM [1]: 22.2%
inhibition at 250 µM [2]: 83%
IC50 [3]: 14.8 µM
IC50 [4]: 1.03 µM
IC50 [6]: 1.06 µM

C[C@@H](O)[C@H]1C(=O)N2C(C(=O)O)=C(S[C@@H]3CN[C@H](C(=O)N(C)C)C3)[C@H](C)[C@H]12 [MEM, Meropenem]
Meropenem MIC [7]: 64 to 256 µg/mL
Meropenem MIC [8]: 8 to 16 µg/mL
Meropenem MIC ([9]; absence of inhibitor): 32 µg/mL
Meropenem MIC [10]: 1 to 4 µg/mL
Meropenem MIC [11]: 32 to 64 µg/mL
Meropenem MIC ([12]; absence of inhibitor): 0.5 µg/mL

COc1cc(Cn2cc(CN(Cc3ccccn3)Cc3ccccn3)nn2)cc(OC)c1OC [Example 7, 1-(pyridin-2-yl)-N-(pyridin-2-ylmethyl)-N-((1-(3,4,5-trimethoxybenzyl)-1H-1,2,3-triazol-4-yl)methyl)methanamine]
inhibition at 250 µM [1]: 12.5%
inhibition at 250 µM [2]: 75.3%
IC50 [3]: 18.7 µM
IC50 [4]: 0.14 µM

COc1ccc(Cn2cc(CN(Cc3ccccn3)Cc3ccccn3)nn2)cc1Br [Example 9]
inhibition at 250 µM [1]: 14.8%
inhibition at 250 µM [2]: 84.2%
IC50 [3]: 19 µM
IC50 [4]: 3.15 µM
IC50 [6]: 0.6 µM

COc1ccc(-n2cc(CN(Cc3ccccn3)Cc3ccccn3)nn2)c(OC)c1 [Example 11, 1-(1-(2,4-dimethoxyphenyl)-1H-1,2,3-triazol-4-yl)-N,N-bis(pyridin-2-ylmethyl)methanamine]
inhibition at 250 µM [1]: 16.5%
inhibition at 250 µM [2]: 75.1%
IC50 [3]: 12.2 µM
IC50 [4]: 0.86 µM

COc1ccc(-n2cc(CN(Cc3ccccn3)Cc3ccccn3)nn2)cc1 [Example 13, 1-(1-(4-methoxyphenyl)-1H-1,2,3-triazol-4-yl)-N,N-bis(pyridin-2-ylmethyl)methanamine]
inhibition at 250 µM [1]: 20.6%
inhibition at 250 µM [2]: 82%
IC50 [3]: 24.9 µM
IC50 [4]: 1.43 µM
IC50 [6]: 0.72 µM

COc1ccc(Cn2cc(CN(Cc3ccccn3)Cc3ccccn3)nn2)cc1 [Example 3, 1-(1-(4-methoxybenzyl)-1H-1,2,3-triazol-4-yl)-N,N-bis(pyridin-2-ylmethyl)methanamine]
inhibition at 250 µM [1]: 15.7%
inhibition at 250 µM [2]: 74%
IC50 [3]: 19.8 µM

c1ccc(CN(CCN(Cc2ccccn2)Cc2ccccn2)Cc2ccccn2)nc1 [TPEN, N,N,N′,N′-tetrakis(2-pyridylmethyl) ethylenediamine, reference compound]
synergistic activity with meropenem [13]: Synergistic activity
Meropenem MIC (mg/L) in presence of compound [9]: ≤0.064 mg/L
Meropenem MIC (mg/L) in presence of compound [14]: 64 mg/L
Meropenem MIC (mg/L) in presence of compound [12]: 1 mg/L
IC50 [3]: 0.3 µM
IC50 [4]: 0.61 µM

C[C@@H](N)C(=O)N[C@H](C)C(=O)NCCc1ccc(NC(=O)CN(Cc2ccccn2)Cc2ccccn2)cc1.Cl [Example 24, (R)-1-(((R)-1-((4-(2-(bis(pyridin-2-ylmethyl)amino)acetamido)phenethyl)amino)-1-oxopropan-2-yl)amino)-1-oxopropan-2-aminium chloride]
synergistic effect with meropenem [5]: No synergistic effect
inhibition at 250 µM [1]: 69.2%
synergistic activity with meropenem [13]: strong synergistic potentiation of meropenem
inhibition at 250 µM [2]: 98.2%
Meropenem MIC (mg/L) in presence of compound [9]: 32 mg/L
Meropenem MIC (mg/L) in presence of compound [14]: 128 to 256 mg/L
Meropenem MIC (mg/L) in presence of compound [12]: 0.5 mg/L
IC50 [3]: 22.8 µM
IC50 [4]: 0.4 µM
IC50 [6]: 0.52 µM
